# Measured values taken from PubChem BioAssay (NCI).
#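 Protocol summary: plate cells (96-well), add compound at 5 concentrations, incubate 48 h, interpolate endpoints linearly. TGI: total growth inhibition.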
# How the values were obtained:
# Assay in all cases: NCI anticancer screen, dose series, 48 h
# T-47D breast = test system: T-47D breast
# UACC-62 melanoma = test system: UACC-62 melanoma
# HCT-116 colon = test system: HCT-116 colon
# OVCAR-3 ovarian = test system: OVCAR-3 ovarian
# MDA-MB-231 breast = test system: MDA-MB-231 breast
# ACHN renal = test system: ACHN renal
# HOP-92 NSCLC = test system: HOP-92 NSCLC
# IGROV1 ovarian = test system: IGROV1 ovarian
# RXF 393 renal = test system: RXF 393 renal
# SK-MEL-5 melanoma = test system: SK-MEL-5 melanoma
# MCF7 breast = test system: MCF7 breast
# 786-0 renal = test system: 786-0 renal
# SF-539 CNS = test system: SF-539 CNS
# A549 NSCLC = test system: A549 NSCLC
# NCI-H226 lung = test system: NCI-H226 lung
# MOLT-4 leukemia = test system: MOLT-4 leukemia
# UACC-257 melanoma = test system: UACC-257 melanoma
# CAKI-1 renal = test system: CAKI-1 renal
# A498 renal = test system: A498 renal
# NCI-H522 lung = test system: NCI-H522 lung
Compound,TGI (T-47D breast) [µM],TGI (UACC-62 melanoma) [µM],TGI (HCT-116 colon) [µM],TGI (OVCAR-3 ovarian) [µM],TGI (MDA-MB-231 breast) [µM],TGI (ACHN renal) [µM],TGI (HOP-92 NSCLC) [µM],TGI (IGROV1 ovarian) [µM],TGI (RXF 393 renal) [µM],TGI (SK-MEL-5 melanoma) [µM],TGI (MCF7 breast) [µM],TGI (786-0 renal) [µM],TGI (SF-539 CNS) [µM],TGI (A549 NSCLC) [µM],TGI (NCI-H226 lung) [µM],TGI (MOLT-4 leukemia) [µM],TGI (UACC-257 melanoma) [µM],TGI (CAKI-1 renal) [µM],TGI (A498 renal) [µM],TGI (NCI-H522 lung) [µM]
CCOC(=O)CC(=O)C(=O)NNC1=NCCCN1,> 100,> 100,> 100,> 100,> 100,> 100,> 100,> 100,> 100,> 100,> 100,> 100,> 100,> 100,> 100,> 100,,,,
CSC(=NCCCCN=C(NS(=O)(=O)c1ccc(Cl)cc1)SC)NS(=O)(=O)c1ccc(Cl)cc1,> 100,> 100,> 100,> 100,> 100,> 100,> 100,> 100,,,> 100,> 100,> 100,,,,> 100,> 100,> 100,
CC(C)OCC(O)COc1ccc2ccc(=O)oc2c1 (centres undefined),> 100,> 100,> 100,> 100,> 100,> 100,> 100,> 100,,> 100,> 100,> 100,,> 100,,> 100,> 100,> 100,,> 100
COC(=O)N/N=C(/CCN1CCCC1)CC(c1ccccc1)c1c(O)c2ccccc2oc1=O (centres undefined),,> 100,> 100,> 100,,> 100,,> 100,> 100,> 100,,> 100,> 100,> 100,> 100,> 100,> 100,> 100,> 100,> 100
O=C(Cn1cc(-c2ccccc2)nn1)NC1CCCC1,,,> 100,,> 100,> 100,> 100,> 100,,> 100,> 100,> 100,> 100,> 100,> 100,> 100,> 100,> 100,,> 100
O=C(O)C(Cc1c[nH]c2ccccc12)N=Cc1nc(-c2ccccc2)oc1O (centres undefined),,> 100,> 100,> 100,,> 100,> 100,> 100,> 100,> 100,,> 100,> 100,> 100,> 100,> 100,> 100,,> 100,> 100
O=C(O)C1(C(=O)O)CC1(C(=O)O)C(=O)O,> 100,> 100,> 100,,> 100,> 100,,> 100,> 100,> 100,> 100,> 100,> 100,> 100,> 100,> 100,> 100,> 100,,> 100
CC1(C)C=C(/C=N/Nc2ccc([N+](=O)[O-])cc2)C(C#N)=C(O)C1(C#N)C#N,> 100,> 100,> 100,> 100,> 100,> 100,> 100,> 100,> 100,> 100,> 100,> 100,> 100,> 100,> 100,> 100,> 100,> 100,,> 100
CN(/N=C/c1cccs1)c1ccc(Cl)cc1[N+](=O)[O-],> 100,> 100,> 100,> 100,> 100,> 100,,> 100,> 100,> 100,> 100,> 100,75,> 100,97.3,> 100,> 100,> 100,,69.5
COc1ccc(CNC2=C(NC(C)=O)C(=O)c3ccccc3C2=O)cc1,,33.5,19.9,20.8,,8.69,13,> 50,12.8,14.1,,> 50,21.9,> 50,> 50,17.7,21.7,,,5.17
NCC#CCNCCCN1CC1,> 100,> 100,> 100,> 100,,> 100,> 100,> 100,,> 100,> 100,> 100,> 100,> 100,> 100,,> 100,> 100,> 100,> 100
CC1(C)C(O)C[C@]23CCC[C@](C)(C[C@@H](O)C12)C3 (some centres undefined),,> 100,,> 100,,> 100,> 100,> 100,,> 100,> 100,> 100,,> 100,> 100,> 100,> 100,> 100,,> 100
COC(=O)C(=O)c1c2ccccc2n2ccc3c4ccccc4[nH]c3c12,> 10,> 10,> 10,> 10,> 10,> 10,> 10,> 10,> 10,> 10,> 10,> 10,> 10,> 10,> 10,> 10,> 10,> 10,,> 10
CC(=O)OCC1OC(n2c(C)c(N=Nc3ccccc3)c(C)c(C#N)c2=S)C(OC(C)=O)C(OC(C)=O)C1OC(C)=O (centres undefined),> 100,33.3,60,> 100,62.3,> 100,28,> 100,32.4,> 100,> 100,22.7,> 100,> 100,,> 100,> 100,> 100,,
